Laboratory results reported in ChEMBL document CHEMBL3046319, “PCR-RFLP detection of the E198A mutation conferring resistance to benzimidazoles in field isolates of Monilinia laxa from Greece” (Crop Prot, 2012).
Values after ≈ are worked out from the molar mass of the structure shown. Active and inactive are the calls of the source. The rule behind the calls is not given here.

Tests used:
Monilinia laxa [1] = test: Fungicidal activity against Monilinia laxa isolate MLG3 assessed as reduction in mycelial growth rate at 25 degC after 4 days; type: functional, organism-based; conditions: isolate MLG3, 96 h
Monilinia laxa [2] = test: Fungicidal activity against Monilinia laxa isolate KX2 assessed as reduction in mycelial growth rate at 1 to 10 ug/ml at 31 degC after 5 days; type: functional, organism-based
Monilinia laxa [3] = test: Fungicidal activity against Monilinia laxa isolate MLK4 assessed as reduction in mycelial growth rate at 1 to 10 ug/ml at 31 degC after 5 days; type: functional, organism-based
Monilinia laxa [4] = test: Fungicidal activity against Monilinia laxa isolate MLA1 assessed as reduction in mycelial growth rate at 25 degC after 4 days; type: functional, organism-based; conditions: isolate MLA1, 96 h
Monilinia laxa [5] = test: Fungicidal activity against Monilinia laxa isolate MLX3 assessed as reduction in mycelial growth rate at 1 to 10 ug/ml at 31 degC after 5 days; type: functional, organism-based
Monilinia laxa [6] = test: Fungicidal activity against Monilinia laxa isolate MLK12 assessed as reduction in mycelial growth rate at 1 to 10 ug/ml at 31 degC after 5 days; type: functional, organism-based
Monilinia laxa [7] = test: Fungicidal activity against Monilinia laxa isolate MLC2 assessed as mean mycelial colony diameter at 25 degC after 4 days; type: functional
Monilinia laxa [8] = test: Fungicidal activity against Monilinia laxa isolate MLKS2 assessed as reduction in mycelial growth rate at 1 to 10 ug/ml at 31 degC after 5 days; type: functional, organism-based
Monilinia laxa [9] = test: Fungicidal activity against Monilinia laxa isolate MLK24 assessed as reduction in mycelial growth rate at 1 to 10 ug/ml at 31 degC after 5 days; type: functional, organism-based
Monilinia laxa [10] = test: Fungicidal activity against Monilinia laxa isolate MLNS1 assessed as reduction in mycelial growth rate at 1 to 10 ug/ml at 31 degC after 5 days; type: functional, organism-based
Monilinia laxa [11] = test: Fungicidal activity against Monilinia laxa isolate MLC6 assessed as reduction in mycelial growth rate at 1 to 10 ug/ml at 31 degC after 5 days; type: functional, organism-based
Monilinia laxa [12] = test: Fungicidal activity against Monilinia laxa isolate MLK5 assessed as reduction in mycelial growth rate at 25 degC after 4 days; type: functional, organism-based; conditions: isolate MLK5, 96 h
Monilinia laxa [13] = test: Fungicidal activity against Monilinia laxa isolate MLBO3 assessed as reduction in mycelial growth rate at 25 degC after 4 days; type: functional, organism-based; conditions: isolate MLBO3, 96 h
Monilinia laxa [14] = test: Fungicidal activity against Monilinia laxa isolate MLK5 assessed as reduction in mycelial growth rate at 1 to 10 ug/ml at 25 to 28 degC; type: functional, organism-based
Monilinia laxa [15] = test: Fungicidal activity against Monilinia laxa isolate MLG7 assessed as reduction in mycelial growth rate at 25 degC after 4 days; type: functional, organism-based; conditions: isolate MLG7, 96 h
Monilinia laxa [16] = test: Fungicidal activity against Monilinia laxa isolate KX5 assessed as reduction in mycelial growth rate at 1 to 10 ug/ml at 31 degC after 5 days; type: functional, organism-based
Monilinia laxa [17] = test: Fungicidal activity against Monilinia laxa isolate MLBO8 assessed as reduction in mycelial growth rate at 1 to 10 ug/ml at 31 degC after 5 days; type: functional, organism-based
Monilinia laxa [18] = test: Fungicidal activity against Monilinia laxa isolate MLX5 assessed as reduction in mycelial growth rate at 25 degC after 4 days; type: functional, organism-based; conditions: isolate MLX5, 96 h
Monilinia laxa [19] = test: Fungicidal activity against Monilinia laxa isolate MLBO1 assessed as reduction in mycelial growth rate at 25 degC after 4 days; type: functional, organism-based; conditions: isolate MLBO1, 96 h
Monilinia laxa [20] = test: Fungicidal activity against Monilinia laxa isolate MLX4 assessed as reduction in mycelial growth rate at 25 degC after 4 days; type: functional, organism-based; conditions: isolate MLX4, 96 h
Monilinia laxa [21] = test: Fungicidal activity against Monilinia laxa isolate KX4 assessed as reduction in mycelial growth rate at 1 to 10 ug/ml at 25 to 28 degC; type: functional, organism-based
Monilinia laxa [22] = test: Fungicidal activity against Monilinia laxa isolate MLBO5 assessed as reduction in mycelial growth rate at 1 to 10 ug/ml at 31 degC after 5 days; type: functional, organism-based

**Q.** Which results are given for `COC(=O)Nc1nc2ccccc2[nH]1` [CARBENDAZIM]?
**A.** EC50 (Monilinia laxa [1]): 0.08 µg/mL (≈ 0.418 µM); inhibition (Monilinia laxa [2]): Active; inhibition (Monilinia laxa [3]): Active; EC50 (Monilinia laxa [4]): 0.06 µg/mL (≈ 0.314 µM); inhibition (Monilinia laxa [5]): Active; inhibition (Monilinia laxa [6]): Active; Activity (Monilinia laxa [7]): 29.5 mm; inhibition (Monilinia laxa [8]): Active; inhibition (Monilinia laxa [9]): Active; inhibition (Monilinia laxa [10]): Active; inhibition (Monilinia laxa [11]): Active; EC50 (Monilinia laxa [12]): > 50 µg/mL; EC50 (Monilinia laxa [13]): 0.05 µg/mL (≈ 0.262 µM); inhibition (Monilinia laxa [14]): inactive; EC50 (Monilinia laxa [15]): 0.12 µg/mL (≈ 0.628 µM); inhibition (Monilinia laxa [16]): Active; inhibition (Monilinia laxa [17]): Active; EC50 (Monilinia laxa [18]): > 50 µg/mL; EC50 (Monilinia laxa [19]): 0.11 µg/mL (≈ 0.575 µM); EC50 (Monilinia laxa [20]): 0.11 µg/mL (≈ 0.575 µM); inhibition (Monilinia laxa [21]): inactive; inhibition (Monilinia laxa [22]): Active
